Data on 6 molecules can be found in patent publication US20220145303A1, “FRAGILE X MENTAL RETARDATION PROTEIN INTERFERING OLIGONUCLEOTIDES AND METHODS OF USING SAME” (Nogra Pharma Limited, priority 2019, published 2022).

For data set [1], the system named is FMRP. The data set can be described thus: FMRP knockdown: Western blot of FMRP after transfection with FMRP antisense or sense oligonucleotide. The format is cell-based, human. The settings on record: 48 hours, AS 0.5-100 nM, S 100 nM. The method, then:
Total proteins were extracted from mouse colonic tissues, and lysed on ice in buffer containing 10 mM HEPES [pH 7.9], 10 mM KCl, 0.1 mM EthyleneDiamineTetraacetic Acid (EDTA), 0.2 mM Ethylene Glycol-bis (β-aminoethyl ether)-N,N,N′,N′-Tetraacetic Acid (EGTA) and 0.5% Nonidet P40 supplemented with 1 mM dithiothreitol (DTT), […], […], 1 mM phenylmethylsulfonyl fluoride (PMSF), 1 mM Na3VO4, and 1 mM NaF. Lysates were clarified by centrifugation and separated on sodium dodecyl sulphate (SDS)-polyacrylamide gel electrophoresis. Blots were incubated with antibodies against: FMRP (Cell Signaling, Danvers, Mass.), followed by a secondary antibody conjugated to horseradish peroxidase (Dako, Milan, Italy). After analysis, each blot was stripped and incubated with a mouse-anti-human monoclonal β-actin antibody (Sigma-Aldrich) to ascertain equivalent loading of the lanes.
Human CRC cell lines, DLD-1 and HCT-116, were obtained from the American Type Culture Collection (ATCC, Manassas, Va.) and cultured in RPMI 1640 (DLD-1) and McCoy's 5A (HCT-116) medium, respectively. All media were supplemented with 10% fetal bovine serum, 1% penicillin/streptomycin (both from Lonza, Verviers, Belgium). The normal human colon epithelial cell line (HCEC-1ct) was obtained from EVERCYTE GmbH (Vienna, Austria) and cultured in ColoUp® medium (EVERCYTE GmbH). Cells were maintained in a 37° C., 5% CO2, fully humidified incubator. Cell line lysates were prepared and analyzed by SDS-polyacrylamide gel electrophoresis/immunoblot using methods as previously described in Example 2. For immunofluorescent staining, cell lines were fixed with 3.7% formaldehyde for 10 minutes at 4° C., permeabilized with 0.1% Triton for 10 minutes at room temperature and blocked (1% bovine serum albumin, Tween 0.1%, glycine 2%) for 1 hour at room temperature. Fixed and blocked cells were incubated with anti-FMRP monoclonal antibody (1:500, Cell Signaling, Danvers, Mass.) overnight at 4° C. After washing with PBS, secondary antibody goat anti-rabbit Alexa 488 (1:2000, A11008; Invitrogen) was applied for 1 hour at room temperature. Slides were washed with PBS, mounted using Prolong Gold® anti-fade reagent with 4′,6-diamidino-2-phenylindole (P36931; Invitrogen) and analyzed by a Leica DMI4000 B microscope with Leica application suite software (V4.6.2).
Phosphorothioate single-stranded antisense oligonucleotides complementary to human FMRP [5′-[…]-3′ (SEQ ID NO: 6)] and single-stranded sense oligonucleotides [5′-[…]-3′ (SEQ ID NO: 15)] were synthesized. CRC cell lines and HCEC-1ct cells were transfected with either FMRP antisense (AS)(final concentration 0.5-100 nM) or FMRP sense oligonucleotide (S) (final concentration100 nM) for 24 and 48 hours, using Opti-MEM medium and lipofectamine 3000 reagent (Thermo Fisher Scientific, Waltham, Mass., USA) according to the manufacturer's instructions.

The test system of data set [2] is FMRP. The data set can be described thus: Western blot of FMRP after CREB antisense transfection. The format is cell-based. The following applies: human CRC cell lines, CREB antisense 200 nM, 24 or 48 hours, FIGS. 7D, 7F. The method, then: (§1) To asses if CREB regulates FMRP expression, CRC cell lines were transfected with either CREB antisense (ASc) (5′-[…]-3′) (SEQ ID NO: 16) or CREB sense (Ss) (5′-[…]-3′)(SEQ ID NO: 17)(final concentration 200 nM) for 24 or 48 hours. mRNA and total protein lysates were prepared and analyzed by RT-PCR and Western blot, respectively, as previously described in Examples 1 to 3.

A further data set has as its system CREB. The data set can be described thus: Western blot of CREB after CREB antisense transfection. The format is cell-based. The following applies: human CRC cell lines, 200 nM, 24 or 48 hours, vs untreated or sense control, FIGS. 7D, 7E. On the procedure: as §1
On the technique in general: Immunoblotting shows a protein as a band on a membrane.

A further data set concerns CRC cells. Description: Antisense-induced cell death after pan-caspase inhibitor pre-treatment (PI/AnnV flow cytometry). The format is cell-based, human. The settings on record: Q-VD-OPh 1 μM pre-treatment, FIG. 4C. On the procedure: (§2) Immunotools, Friesoythe, Germany) according to the manufacturer's instructions, and incubated with […] of propidium iodide (PI) for 30 min at 4° C. Cells were also transfected with either FMRP sense oligonucleotide or FMRP AS oligonucleotide (final concentration 100 nM) for 36 hours and analyzed for activated caspase 3 and caspase 8. […] Additionally, 36 hours (FIGS. 4F and 4G) or 48 hours post-transfection (FIGS. 4D and 4E), cells were pulsed with […] bromodeoxyuridine for 60 minutes, fixed in 70% cold ethanol, and stored at −20° C. for at least 3 hours. […] Fluorescence was measured using Gallios Flow Cytometer (Beckman Coulter, Life Sciences, Pasadena, Calif., USA) and analyzed using Kaluza software (Beckman Coulter). Viable cells were considered as AV^−/PI^− cells.
On the technique in general: In flow cytometry, cells or beads pass a laser one at a time.

A further data set has as its system human CRC cell lines. The data set can be described thus: Antisense-induced cell death with RIPK1 or MLKL inhibitor (PI/AnnV flow cytometry). The data set is classed as cell-based. The following applies: NEC1 10 μM, NSA 1 μM, 24 hours, FIGS. 6E, 6F. The method, then: To confirm the association of FMRP with components of the necroptosis pathway, cells were left untreated or transfected with either FMRP antisense oligonucleotide (final concentration 0.5 nM and 100 nM) or FMRP sense oligonucleotide (final concentration 100 nM); incubated with a pMLKL inhibitor (necrosulfonamide, NSA; final concentration 1 μM)(Calbiochem); or a pRIPK1 inhibitor (necrostatinl, NEC1; final concentration 10 μM)(Cayman Chemical, Ann Arbor, Mich. USA). After 24 hours cells were collected and analyzed by Western blot, or stained with FITC-Annexin V and PI for flow cytometry analysis, as previously described in Examples 1-3.

The test system of another data set is caspase 3. The data set can be described thus: Activated caspase 3 by flow cytometry in CRC cells. The format is cell-based, human. The settings on record: oligonucleotide 100 nM 36 hours, staurosporin 1 μM, FIGS. 4A, 4B. On the procedure:
as §2

Consider “5′-ATGGAGGAGCTGGTGGTGGA-3′ (DNA, backbone and methylation of C not given here; further chemistry not fully specified) [sense oligonucleotide, single-stranded sense oligonucleotides, control, reference compound]”, for which the FMRP expression result was “no significant inhibition” in the data set on FMRP [1] (DLD-1 cells, FIG. 3D); “no significant inhibition” in the data set on FMRP [1] (HCEC-1ct cells, FIG. 3I); “no significant inhibition” in the data set on FMRP [1] (HCT-116 cells, FIG. 3G).
Take “5′-GCATCTCCACTCTGCTGGTT-3′ (listed as DNA, chemistry not given here) [CREB antisense oligonucleotide, CREB antisense (ASc)]”: the FMRP protein expression entry in the data set on FMRP [2] is “concomitant reduction in FMRP protein expression”. In addition, in the data set with CREB, the CREB protein expression entry was “reduced expression of CREB protein”.
Consider `CC(C)[C@H](NC(=O)c1ccc2ccccc2n1)C(=O)N[C@@H](CC(=O)O)C(=O)COc1c(F)cccc1F` [Q-VD-OPh], for which the “effect of pre-treatment on FMRP antisense oligonucleotide-induced cell death” value with CRC cells was “did not alter FMRP antisense oligonucleotide-induced cell death”.
As for `CN1C(=O)C(Cc2c[nH]c3ccccc23)NC1=S` (stereo not drawn) [necrostatin 1], the “effect on FMRP antisense oligonucleotide-induced cell death” value in the data set on human CRC cell lines was “protected from FMRP antisense oligonucleotide-induced cell death”.
With `COc1nccnc1NS(=O)(=O)c1ccc(NC(=O)/C=C/c2ccc([N+](=O)[O-])s2)cc1` [necrosulfonamide], the “effect on FMRP antisense oligonucleotide-induced cell death” value in the data set with human CRC cell lines is on record as “protected from FMRP antisense oligonucleotide-induced cell death”.
For `CN[C@@H]1C[C@H]2O[C@@](C)([C@@H]1OC)n1c3ccccc3c3c4c(c5c6ccccc6n2c5c31)C(=O)NC4` [staurosporin, reference compound], the “percentage of activated caspase 3-positive cells” value in the data set on caspase 3 is listed as “significantly increased”.
